According to patent publication US20040137592A1, “Novel SMG-1” (Japan Science and Technology Agency, priority 2001, published 2004):
Where two headings read alike, the source gives them in different places.

Experiments:
[1] = tested on: hUpf1/SMG-2 in HeLa cells; assay: mobility shift of hUpf1/SMG-2 in HeLa cells treated with okadaic acid, Western blotting; type: cell-based, human; details: various concentrations, 4.5 hours, FIG. 23
Procedure: The HeLa cells were treated with various concentrations of okadaic acid (OA; Calbiochem) for 4.5 hours, and then were recovered and dissolved in the 1×SDS sample buffer. After 6% SDS-PAGE was performed, Western blotting using an anti-hUpf1/SMG-2 antibody was performed to determine the mobility shift of hUpf1/SMG-2.

6H-hSMG-1 = biological target: T1, 6H-hSMG-1 (Homo sapiens, UniProt Q96Q15); assay: in vitro kinase assay of 6H-hSMG-1 with hUpf1/SMG-2 fusion protein (S1096) as substrate; type: biochemical; details: substrate hUpf1/SMG-2 fusion protein (S1096), read-out: IC50, inhibition of the kinase activity of 6H-hSMG-1
T1 construct: made in house; host or cells: 293T cells transfected with SR6H-hSMG-1; immunoprecipitated with anti-polyhistidine antibody
T1 sequence (Q96Q15 111-3661): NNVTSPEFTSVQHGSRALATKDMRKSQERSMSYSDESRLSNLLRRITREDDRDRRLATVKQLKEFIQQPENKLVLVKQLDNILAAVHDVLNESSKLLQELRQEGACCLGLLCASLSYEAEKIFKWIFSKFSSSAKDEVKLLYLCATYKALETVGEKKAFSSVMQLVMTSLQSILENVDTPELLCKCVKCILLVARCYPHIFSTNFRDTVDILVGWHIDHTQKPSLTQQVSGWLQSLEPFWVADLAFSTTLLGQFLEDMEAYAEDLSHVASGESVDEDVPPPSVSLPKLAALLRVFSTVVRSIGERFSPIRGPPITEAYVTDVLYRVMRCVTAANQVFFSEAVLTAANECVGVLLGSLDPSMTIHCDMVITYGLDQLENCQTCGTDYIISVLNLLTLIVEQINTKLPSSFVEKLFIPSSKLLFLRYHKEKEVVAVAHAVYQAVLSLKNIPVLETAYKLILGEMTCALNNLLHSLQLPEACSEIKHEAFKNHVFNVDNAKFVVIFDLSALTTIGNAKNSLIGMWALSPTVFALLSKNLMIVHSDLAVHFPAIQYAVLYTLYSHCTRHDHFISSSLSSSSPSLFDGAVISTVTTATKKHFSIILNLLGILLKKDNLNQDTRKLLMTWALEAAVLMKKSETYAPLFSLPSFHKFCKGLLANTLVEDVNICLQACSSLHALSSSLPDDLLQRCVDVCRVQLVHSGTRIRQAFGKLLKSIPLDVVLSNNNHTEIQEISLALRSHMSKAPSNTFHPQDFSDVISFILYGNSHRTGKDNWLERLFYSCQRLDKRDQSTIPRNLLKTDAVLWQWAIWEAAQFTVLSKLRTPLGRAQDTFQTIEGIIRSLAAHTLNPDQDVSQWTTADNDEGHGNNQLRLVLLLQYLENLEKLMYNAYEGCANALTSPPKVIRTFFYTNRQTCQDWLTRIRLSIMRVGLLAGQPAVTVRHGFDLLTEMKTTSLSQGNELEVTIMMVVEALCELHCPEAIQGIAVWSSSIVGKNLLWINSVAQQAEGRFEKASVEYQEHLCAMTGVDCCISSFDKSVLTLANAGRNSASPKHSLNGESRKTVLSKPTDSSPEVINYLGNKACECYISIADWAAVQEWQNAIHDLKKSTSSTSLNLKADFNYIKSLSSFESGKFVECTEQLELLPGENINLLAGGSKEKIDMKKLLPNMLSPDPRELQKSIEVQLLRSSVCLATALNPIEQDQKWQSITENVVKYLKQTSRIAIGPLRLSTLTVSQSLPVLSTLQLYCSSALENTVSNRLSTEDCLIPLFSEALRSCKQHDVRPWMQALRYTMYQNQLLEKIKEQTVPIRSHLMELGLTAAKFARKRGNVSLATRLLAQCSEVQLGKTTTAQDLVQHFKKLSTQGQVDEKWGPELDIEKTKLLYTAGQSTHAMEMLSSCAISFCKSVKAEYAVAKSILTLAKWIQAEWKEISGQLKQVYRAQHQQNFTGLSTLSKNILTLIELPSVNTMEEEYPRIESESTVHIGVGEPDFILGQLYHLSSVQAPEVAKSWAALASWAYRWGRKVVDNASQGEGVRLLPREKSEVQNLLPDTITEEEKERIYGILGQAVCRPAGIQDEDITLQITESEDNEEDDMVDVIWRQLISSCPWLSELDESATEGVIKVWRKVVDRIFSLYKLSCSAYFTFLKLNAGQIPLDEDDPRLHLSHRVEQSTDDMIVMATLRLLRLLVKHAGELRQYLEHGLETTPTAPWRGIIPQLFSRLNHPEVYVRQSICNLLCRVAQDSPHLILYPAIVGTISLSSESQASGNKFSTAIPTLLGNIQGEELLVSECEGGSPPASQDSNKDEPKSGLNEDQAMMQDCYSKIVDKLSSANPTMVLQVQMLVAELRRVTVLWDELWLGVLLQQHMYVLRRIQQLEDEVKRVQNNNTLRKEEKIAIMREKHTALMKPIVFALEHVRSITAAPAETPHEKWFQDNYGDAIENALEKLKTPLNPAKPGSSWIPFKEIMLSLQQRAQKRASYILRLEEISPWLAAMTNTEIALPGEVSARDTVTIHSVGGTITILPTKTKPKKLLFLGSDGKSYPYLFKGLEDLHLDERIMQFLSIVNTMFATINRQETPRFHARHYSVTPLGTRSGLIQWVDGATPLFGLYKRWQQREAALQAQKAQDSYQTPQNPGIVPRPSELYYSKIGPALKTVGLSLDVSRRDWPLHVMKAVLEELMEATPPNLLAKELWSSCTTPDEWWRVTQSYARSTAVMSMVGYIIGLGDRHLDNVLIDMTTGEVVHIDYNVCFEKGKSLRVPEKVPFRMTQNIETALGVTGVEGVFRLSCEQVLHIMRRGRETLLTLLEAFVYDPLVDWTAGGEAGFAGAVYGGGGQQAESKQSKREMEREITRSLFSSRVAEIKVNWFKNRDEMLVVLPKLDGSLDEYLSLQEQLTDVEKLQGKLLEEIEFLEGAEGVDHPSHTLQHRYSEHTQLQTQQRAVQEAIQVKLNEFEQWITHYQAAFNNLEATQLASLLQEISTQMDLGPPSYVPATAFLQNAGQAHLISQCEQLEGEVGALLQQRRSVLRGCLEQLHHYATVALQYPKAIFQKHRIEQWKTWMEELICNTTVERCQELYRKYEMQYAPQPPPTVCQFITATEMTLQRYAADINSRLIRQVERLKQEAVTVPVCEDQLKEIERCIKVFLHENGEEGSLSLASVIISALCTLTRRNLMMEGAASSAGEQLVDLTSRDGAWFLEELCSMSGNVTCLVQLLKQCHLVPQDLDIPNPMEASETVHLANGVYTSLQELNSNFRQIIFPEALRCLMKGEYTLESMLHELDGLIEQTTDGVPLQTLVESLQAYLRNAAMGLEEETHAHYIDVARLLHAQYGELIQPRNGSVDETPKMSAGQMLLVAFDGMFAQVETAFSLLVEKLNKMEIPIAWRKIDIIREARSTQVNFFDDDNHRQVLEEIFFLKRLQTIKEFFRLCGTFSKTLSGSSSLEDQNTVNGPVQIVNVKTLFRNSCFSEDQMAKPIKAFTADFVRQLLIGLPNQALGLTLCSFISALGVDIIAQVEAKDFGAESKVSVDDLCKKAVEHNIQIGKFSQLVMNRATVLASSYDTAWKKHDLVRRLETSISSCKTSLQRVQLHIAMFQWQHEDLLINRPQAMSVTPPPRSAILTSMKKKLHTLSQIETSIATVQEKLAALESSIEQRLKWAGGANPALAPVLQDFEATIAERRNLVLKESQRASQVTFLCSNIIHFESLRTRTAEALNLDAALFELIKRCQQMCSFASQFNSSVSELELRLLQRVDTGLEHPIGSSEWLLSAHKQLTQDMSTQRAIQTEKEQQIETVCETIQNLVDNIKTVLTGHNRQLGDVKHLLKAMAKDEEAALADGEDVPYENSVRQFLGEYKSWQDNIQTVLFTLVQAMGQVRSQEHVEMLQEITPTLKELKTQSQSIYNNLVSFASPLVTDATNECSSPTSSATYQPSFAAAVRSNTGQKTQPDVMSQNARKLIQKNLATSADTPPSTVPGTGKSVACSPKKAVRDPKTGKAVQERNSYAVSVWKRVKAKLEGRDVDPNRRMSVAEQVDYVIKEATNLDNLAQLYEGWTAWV
Procedure: The immunoprecipitates obtained in the Example 6(1) were washed with a lysis buffer F containing 0.25 mol/L LiCl, and then washed two times with a 1×kinase reaction buffer [10 mmol/L HEPES-KOH (pH7.5), 50 mmol/L β-glycerophosphoric acid, 50 mmol/L NaCl, 1 mmol/L dithiothreitol (DTT), and 10 mmol/L MnCl2].
To each of the washed immunoprecipitates, 25 μL of 2×kinase reaction buffer (that is, two-fold concentrations of the above kinase reaction buffer) was added. The phosphorylation reaction was started by adding 10 mmol/L ATP and 370 kBq [γ-^32P] ATP (6000 Ci/mmol; Amersham Pharmacia Biotech) in equal amounts (25 μL) and continued, with occasional stirring, at 30° C. for 30 minutes. The final reaction amount was maintained at 50 μL, then 25 μL of a 4×SDS sample buffer was added to stop the reaction. SDS-PAGE was performed at gel concentrations of 5.5% and 12.5%, and then autoradiography was carried out to detect the phosphorylated proteins. The phosphorylation strength of each protein was measured by an Image Analyzer BAS2000 (Fuji Film).
More particularly, 6H-hSMG-1 was prepared in accordance with the procedure described in Example 7(3). In the presence of various concentrations of wortmannin or caffeine shown in FIG. 26 and FIG. 27, the hUpf1/SMG-2 fusion protein (S1096) prepared in Example 9(3) was used as the substrate, to perform an in vitro kinase assay. […]

[2] = tested on: BGG-39PTC mRNA in MEF-Tet OFF cells; assay: BGG reporter mRNA accumulation (NMD) in MEF-Tet OFF cells, Northern blotting; type: cell-based; details: 4.5 hours, 50 ng/ml doxycycline, FIG. 29
Procedure: More particularly, MEF-Tet OFF cells were transfected with the reporter plasmid BGG-WT or the reporter plasmid BGG-39 PTC, and re-inoculated in eight dishes. The cells were then treated for 4.5 hours in the presence of 50 ng/ml doxycycline by various concentrations of caffeine (caff.), wortmannin (wort.), rapamycin (rap.), or cyclohexamide (CHX) shown in FIG. 29.
The Total RNA was analyzed by Northern blotting using the BGG probe. In FIG. 29, “BG WT” means the results in the case of use of the reporter plasmid BGG-WT, “BG PTC” means the results in the case of use of the reporter plasmid BGG-39PTC, and “GAPDH” means the results in the case of use of the cDNA of glyceryl aldehyde-3-phosphate dehydrogenase as a probe. Further, “cont.”, “caff.”, “wort.”, “rap.”, and “CHX” show the results of the control (that is, in the absence of wortmannin, caffeine, rapamycin, and cyclohexamide), the results in the presence of caffeine, the results in the presence of wortmannin, the results in the presence of rapamycin, and the results in the presence of cyclohexamide, respectively.

[3] = tested on: hUpf1/SMG-2 phosphorylation in HeLa cells; type: cell-based, human; details: 30 min pretreatment, then 4.5 hours with 50 nmol/L okadaic acid, FIG. 28
Procedure: HeLa cells were pretreated for 30 minutes in the presence or absence of various concentrations of wortmannin, caffeine, or rapamycin shown in FIG. 28. Next, the cells were treated for 4.5 hours in the presence of wortmannin, caffeine, or rapamycin and in the presence or absence of 50 nmol/L okadaic acid. Cell lysates were prepared and analyzed by Western blotting using the anti-Upf1/SMG-2 antibody.
Further, “hUPF1-P” means phosphorylated hUpf1/SMG-2, while “hUPF1” means unphosphorylated hUpf1/SMG-2.

C=C1[C@@H](O)[C@@H]2O[C@]3(CC[C@H](/C=C/[C@@H](C)[C@@H]4CC(C)=C[C@@]5(O[C@H](C[C@@](C)(O)C(=O)O)CC[C@H]5O)O4)O3)CC[C@H]2O[C@@H]1[C@@H](O)C[C@H](C)[C@H]1O[C@@]2(CCCCO2)CC[C@H]1C [okadaic acid]
upwardly shifted (phosphorylated) band of hUpf1/SMG-2 [1]: upwardly shifted band of hUpf1/SMG-2 appears

COC[C@H]1OC(=O)c2coc3c2[C@@]1(C)C1=C(C3=O)[C@@H]2CCC(=O)[C@@]2(C)C[C@H]1OC(C)=O [wortmannin]
IC50 (6H-hSMG-1; FIG. 26): ~0.06 µM

C[C@@H]1C[C@@H]([C@H](O)CC2CC(=O)NC(=O)C2)C(=O)[C@@H](C)C1 [CHX, cyclohexamide]
inhibition of NMD [2]: inhibited NMD

Cn1c(=O)c2c(ncn2C)n(C)c1=O [caffeine]
inhibition of the upward shift of hUpf1/SMG-2 [3]: inhibited the upward shift
accumulation of BGG 39PTC mRNA [2]: resulted in the accumulation of BGG 39PTC
IC50 (6H-hSMG-1; FIG. 27): ~300 µM
